Test results reported in ChEMBL document CHEMBL1201862, “PubChem BioAssay data set” (2004).
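All cell lines were grown in 96-well plates and treated with compound for 48 hours. GI50 = concentration required for 50% inhibition of growth.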 The source made the active and inactive calls. No stated cut-off is given here; in the data, active = GI50 up to about 1.1 µM and inactive = higher.

What was measured:
Test in all cases: NCI-60 cell line screen, 48 h
786-0 = tested on: 786-0
BT-549 = tested on: BT-549
CAKI-1 = tested on: CAKI-1
EKVX = tested on: EKVX
HOP-62 = tested on: HOP-62
K562 = tested on: K562
M14 = tested on: M14
MDA-MB-435 = tested on: MDA-MB-435
NCI-H522 = tested on: NCI-H522
OVCAR-8 = tested on: OVCAR-8
SF-268 = tested on: SF-268
SK-MEL-28 = tested on: SK-MEL-28
SK-MEL-5 = tested on: SK-MEL-5
SN12C = tested on: SN12C
SNB-19 = tested on: SNB-19
SNB-75 = tested on: SNB-75
SW-620 = tested on: SW-620
T47D = tested on: T47D
TK-10 = tested on: TK-10
LOX IMVI = tested on: LOX IMVI

Row | Structure (SMILES) | GI50 (786-0) | GI50 (BT-549) | GI50 (CAKI-1) | GI50 (EKVX) | GI50 (HOP-62) | GI50 (K562) | GI50 (M14) | GI50 (MDA-MB-435) | GI50 (NCI-H522) | GI50 (OVCAR-8) | GI50 (SF-268) | GI50 (SK-MEL-28) | GI50 (SK-MEL-5) | GI50 (SN12C) | GI50 (SNB-19) | GI50 (SNB-75) | GI50 (SW-620) | GI50 (T47D) | GI50 (TK-10) | GI50 (LOX IMVI)
1 | COc1ccc2c(c1)CC[C@@H]1C2CC[C@]2(C)C(=O)N(C)C(=O)CC12 (some centres undefined) | 50.1 µM (inactive) | > 100 µM (inactive) | > 100 µM (inactive) | > 100 µM (inactive) | 38.9 µM (inactive) | > 100 µM (inactive) | > 100 µM (inactive) | > 100 µM (inactive) | > 100 µM (inactive) | > 100 µM (inactive) | > 100 µM (inactive) | > 100 µM (inactive) | > 100 µM (inactive) | > 100 µM (inactive) | > 100 µM (inactive) | 52.5 µM (inactive) | > 100 µM (inactive) | > 100 µM (inactive) | > 100 µM (inactive) | –
2 | C/C(CC(O)(/C=N/O)c1ccccc1)=N/O (centres undefined) | > 100 µM (inactive) | > 100 µM (inactive) | > 100 µM (inactive) | > 100 µM (inactive) | > 100 µM (inactive) | > 100 µM (inactive) | > 100 µM (inactive) | > 100 µM (inactive) | > 100 µM (inactive) | > 100 µM (inactive) | > 100 µM (inactive) | > 100 µM (inactive) | > 100 µM (inactive) | > 100 µM (inactive) | > 100 µM (inactive) | – | > 100 µM (inactive) | > 100 µM (inactive) | > 100 µM (inactive) | > 100 µM (inactive)
3 | CC(C)=CC1C(COC(=O)c2ccccc2Cl)C1(C)C (centres undefined) | 33.2 µM (inactive) | 33.5 µM (inactive) | 41.6 µM (inactive) | 25.8 µM (inactive) | 38.4 µM (inactive) | 34 µM (inactive) | 75 µM (inactive) | 85.1 µM (inactive) | 20.4 µM (inactive) | 53.1 µM (inactive) | 27.5 µM (inactive) | > 100 µM (inactive) | 24 µM (inactive) | 32.6 µM (inactive) | > 100 µM (inactive) | – | 51.3 µM (inactive) | 50.6 µM (inactive) | > 100 µM (inactive) | 20.2 µM (inactive)
4 | C/C=C/C/C=C/CCC(=O)C1OC1C(N)=O (centres undefined) | 13.1 µM (inactive) | 12.2 µM (inactive) | 16.3 µM (inactive) | 18.9 µM (inactive) | 2.52 µM (inactive) | 15.9 µM (inactive) | 15.8 µM (inactive) | 14.1 µM (inactive) | 12.4 µM (inactive) | 13.3 µM (inactive) | 12.5 µM (inactive) | 15.4 µM (inactive) | 15 µM (inactive) | 19 µM (inactive) | 18.2 µM (inactive) | 14.3 µM (inactive) | 19.8 µM (inactive) | – | 13.2 µM (inactive) | 13.2 µM (inactive)
5 | C=C(C)C1(Sc2ccc(OC)cc2)CC1 | 29.6 µM (inactive) | 17.1 µM (inactive) | 30.5 µM (inactive) | 27.6 µM (inactive) | 34.1 µM (inactive) | 14.9 µM (inactive) | 35.1 µM (inactive) | 7.94 µM (inactive) | – | 33 µM (inactive) | 15.8 µM (inactive) | 79.1 µM (inactive) | 14.6 µM (inactive) | 17.5 µM (inactive) | 45.4 µM (inactive) | 21.9 µM (inactive) | 17.4 µM (inactive) | 31.9 µM (inactive) | 48.1 µM (inactive) | 17.3 µM (inactive)
6 | CCOc1ccc2nc(NC(=O)C(=O)C(c3cnc4ccccc4n3)[N+](=O)[O-])sc2c1 (centres undefined) | > 100 µM (inactive) | > 100 µM (inactive) | > 100 µM (inactive) | 96.8 µM (inactive) | > 100 µM (inactive) | 98.2 µM (inactive) | > 100 µM (inactive) | – | 45.4 µM (inactive) | 53.5 µM (inactive) | > 100 µM (inactive) | – | > 100 µM (inactive) | > 100 µM (inactive) | 69.2 µM (inactive) | > 100 µM (inactive) | – | > 100 µM (inactive) | > 100 µM (inactive) | 61 µM (inactive)
7 | S=C(N/N=C(/c1ccccc1)c1ccccn1)Nc1ccc(Cl)cc1 | 1.05 µM (active) | 3.15 µM (inactive) | 0.264 µM (active) | 0.462 µM (active) | 1.93 µM (inactive) | < 0.01 µM (active) | 0.03 µM (active) | 2.22 µM (inactive) | 1.16 µM (inactive) | 0.0444 µM (active) | 0.236 µM (active) | 2.28 µM (inactive) | 0.403 µM (active) | 0.211 µM (active) | 3.02 µM (inactive) | 2.06 µM (inactive) | 0.0423 µM (active) | – | 0.551 µM (active) | 0.164 µM (active)
8 | O=C(O)CN(CC(=O)O)Cc1cc(C#Cc2ccc(C#Cc3ccccc3)cc2)cc(CN(CC(=O)O)CC(=O)O)n1 | 13.1 µM (inactive) | 12.3 µM (inactive) | 10.6 µM (inactive) | 20.3 µM (inactive) | 18.4 µM (inactive) | 33 µM (inactive) | 22.9 µM (inactive) | 22.8 µM (inactive) | 17.2 µM (inactive) | 11.5 µM (inactive) | 12.2 µM (inactive) | > 52 µM (inactive) | 27.3 µM (inactive) | 19.7 µM (inactive) | 5.75 µM (inactive) | 31.6 µM (inactive) | 15.7 µM (inactive) | – | 17.5 µM (inactive) | 11.1 µM (inactive)
9 | CC(C)c1ccc(/C=C2\CSCC3=C2N=C(S)NC3c2ccc(C(C)C)cc2)cc1 (centres undefined) | > 100 µM (inactive) | > 100 µM (inactive) | > 100 µM (inactive) | 61.8 µM (inactive) | > 100 µM (inactive) | 34.8 µM (inactive) | > 100 µM (inactive) | – | 53.6 µM (inactive) | > 100 µM (inactive) | > 100 µM (inactive) | > 100 µM (inactive) | 27.2 µM (inactive) | > 100 µM (inactive) | > 100 µM (inactive) | – | > 100 µM (inactive) | 80.4 µM (inactive) | > 100 µM (inactive) | 51.6 µM (inactive)
10 | O=C1NC(=S)NC(=O)C1C(c1ccc(O)cc1)C1C(=O)NC(=S)NC1=O.c1ccncc1 | > 100 µM (inactive) | > 100 µM (inactive) | > 100 µM (inactive) | – | > 100 µM (inactive) | > 100 µM (inactive) | > 100 µM (inactive) | > 100 µM (inactive) | > 100 µM (inactive) | > 100 µM (inactive) | – | > 100 µM (inactive) | > 100 µM (inactive) | > 100 µM (inactive) | > 100 µM (inactive) | – | > 100 µM (inactive) | > 100 µM (inactive) | > 100 µM (inactive) | > 100 µM (inactive)
11 | NNc1nncc2[nH]cnc12 | > 100 µM (inactive) | > 100 µM (inactive) | > 100 µM (inactive) | > 100 µM (inactive) | > 100 µM (inactive) | > 100 µM (inactive) | > 100 µM (inactive) | > 100 µM (inactive) | – | > 100 µM (inactive) | > 100 µM (inactive) | > 100 µM (inactive) | > 100 µM (inactive) | > 100 µM (inactive) | > 100 µM (inactive) | > 100 µM (inactive) | > 100 µM (inactive) | > 100 µM (inactive) | > 100 µM (inactive) | –
12 | COc1ccc(NC(=S)N/N=C(\c2ccccc2)c2ccccn2)cc1 | < 0.0267 µM (active) | 4.94 µM (inactive) | 0.034 µM (active) | < 0.0543 µM (active) | 0.06 µM (active) | < 0.01 µM (active) | 0.0117 µM (active) | 1.96 µM (inactive) | 0.0552 µM (active) | 0.0218 µM (active) | 0.123 µM (active) | 2.56 µM (inactive) | 0.0432 µM (active) | 0.052 µM (active) | 2.84 µM (inactive) | – | < 0.01 µM (active) | < 0.0317 µM (active) | 0.0244 µM (active) | < 0.0152 µM (active)
13 | C/C(=N/NC(=S)Nc1cccc(C)c1)c1ccccn1 | 0.0217 µM (active) | 3.87 µM (inactive) | < 0.0532 µM (active) | 0.0685 µM (active) | 0.0341 µM (active) | < 0.01 µM (active) | < 0.013 µM (active) | 1.35 µM (inactive) | 0.238 µM (active) | < 0.0183 µM (active) | 0.21 µM (active) | 1.71 µM (inactive) | 0.061 µM (active) | 0.226 µM (active) | 0.977 µM (active) | 2.11 µM (inactive) | < 0.01 µM (active) | – | 0.274 µM (active) | < 0.0121 µM (active)
14 | Cc1c(Br)c(Br)c(C)[s+]1[O-] | 16.9 µM (inactive) | 16.3 µM (inactive) | 13.7 µM (inactive) | 15.1 µM (inactive) | 15.6 µM (inactive) | 25.6 µM (inactive) | 13.4 µM (inactive) | 9.16 µM (inactive) | 8.02 µM (inactive) | 21.6 µM (inactive) | 25.2 µM (inactive) | 17.6 µM (inactive) | 10.4 µM (inactive) | 11.8 µM (inactive) | 20.7 µM (inactive) | – | 8.89 µM (inactive) | 34.9 µM (inactive) | 21.2 µM (inactive) | 11.1 µM (inactive)
15 | COc1ccc(C2(O)c3ccccc3C(=O)N(C)C2(O)c2ccc(OC)cc2)cc1 (centres undefined) | 81.5 µM (inactive) | 34.3 µM (inactive) | 57.1 µM (inactive) | 86.7 µM (inactive) | 70.8 µM (inactive) | 55.8 µM (inactive) | 53.3 µM (inactive) | 17.3 µM (inactive) | 16.1 µM (inactive) | 81.7 µM (inactive) | 28.7 µM (inactive) | 25.6 µM (inactive) | 99.1 µM (inactive) | > 100 µM (inactive) | > 100 µM (inactive) | – | 34.2 µM (inactive) | 52.4 µM (inactive) | 59.4 µM (inactive) | 30.1 µM (inactive)
